Source: patent US10239890B2, “Broad spectrum beta-lactamase inhibitors” (Gladius Pharmaceuticals Corporation, priority 2007, dated 2019)

Assays:
[1] = biological target: T1, beta-lactamase from Enterobacter cloacae (Enterobacter cloacae, UniProt P05364); assay: Assay (I) for beta-lactamase activity (Cefesone hydrolysis, absorbance at 486 nm), product inhibition; assay type: biochemical; settings: Cefesone substrate
T1 construct: purchased Sigma-Aldrich, St. Louis, Mo
Procedure: A chromogenic cephalosporin, Cefesone, is synthesized and isolated as described by Sutton et al. and used to monitor p-lactamase activity. A typical assay monitors the hydrolysis of Cefesone via the formation of a species which absorbs at 486 nm (molar absorptivity constant 16,000). Absorption is monitored as a function of time in 0.1 M, pH 7.0 sodium phosphate, 0.2 mM Cefesone and 4 volume percent DMSO cosolvent at 30° C. using a Beckman DU-40 spectrophotometer having a circulating water bath attached to the cuvette holder. The assay is initiated by addition and mixing of an appropriate amount of beta-lactamase.
The beta-lactamase assay using enzyme fro Enterobacter cloacae (Sigma-Aldrich, St. Louis, Mo.) was carried out as in Example 1 (assay I) above with compound 2. After the initial rate was determined the reaction was allowed to continue for two hours. Theoretical maximal absorbance at 486 nm is approximately 1.6 while the observed final absorbance was consistently 0.26.
where E is enzyme, S is substrate, P is product, ES is the enzyme-substrate complex, EP is the enzyme product complex, and k1, k−1, k2, and k−2 are rate constants and kcat is the catalytic rate constant. In the case of product inhibition k−2 is large with respect to k2, so as enzyme product accumulates, more enzyme is tied up in the enzyme-product complex and is unavailable for catalysis.

[2] = biological target: T1, beta-lactamase from Enterobacter cloacae; assay: Time dependent inhibition of beta-lactamase, with dialysis to test for return of activity; assay type: biochemical; settings: 10 mL 0.1 units/mL beta-lactamase with and without 500 microM inhibitor, dialysed against 1 L 0.1 M sodium phosphate buffer (pH 7.0) with one exchange

T1 sequence (P05364 21-381): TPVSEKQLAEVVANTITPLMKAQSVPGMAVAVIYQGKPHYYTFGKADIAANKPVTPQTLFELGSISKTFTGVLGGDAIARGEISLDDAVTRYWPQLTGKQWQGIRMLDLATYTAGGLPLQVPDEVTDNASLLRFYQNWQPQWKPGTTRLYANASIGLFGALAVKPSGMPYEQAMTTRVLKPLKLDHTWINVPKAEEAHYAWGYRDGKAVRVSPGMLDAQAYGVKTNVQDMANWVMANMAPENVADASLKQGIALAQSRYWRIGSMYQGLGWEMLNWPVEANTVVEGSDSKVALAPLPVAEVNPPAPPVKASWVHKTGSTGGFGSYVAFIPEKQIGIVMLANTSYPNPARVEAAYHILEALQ

## O=C(Cc1ccccc1)NC1C(=O)N2C(C(=O)O)=C(/C=C/C3CC3)CSC12 (stereo not shown) [compound 2, 3-vinylcyclopropane-7-(2-phenylacetamido)-3-Cephem-4-carboxylic acid]
[1]; reaction continued for two hours after the initial rate, theoretical maximal absorbance approximately 1.6
  observed final absorbance at 486 nm: 0.26
[1]; reaction continued for two hours
  type of inhibition inferred from final absorbance: consistent with product inhibition
[2]
  return of beta-lactamase activity after dialysis: no return of activity

## O=C(Cc1ccccc1)NC1C(=O)N2C(C(=O)O)=C(/C=C/c3ccc(CBr)cc3)CSC12 (stereo not shown) [compound 4, 3-(1-bromomethyl-4-vinylbenzene)-7-(2-phenylacetamido)-3-Cephem-4-carboxylic acid]
[2]
  return of beta-lactamase activity after dialysis: no return of activity
